Several values for one entry are separate records, joined by “and”; a condition that tells them apart may be missing. Identical values can stand only once.
Key:
[1] = in vivo
[2] = General safety in broilers reared to market weight by histology (Example 8); settings: histology D42
[3] = test system: Eimeria species (mainly E. acervulina); settings: in vivo
[4] = Feed palatability, feed and water consumption and bird productivity study (Example 2); type: in vivo, broiler chickens
From the text: A follow-up study to determine the feed palatability, feed and water consumption and bird productivity following incorporation of a single formulation of IRP001 hemisulfate salt (unmasked) when offered to broiler chickens in-feed or in-water. The study explores the optimal treatment regime in terms of treatment start date.
Phase 1: On receipt, two hundred and seventy (270) day-old commercial broiler chickens were allocated sequentially as they are received into sixteen (16) individual floor pens, each of 16 or 17 birds, on Day 0.
Phase 2: On receipt, the ninety (90) day-old commercial broiler chickens were allocated sequentially as they are received into four (4) individual floor pens, each of 22 or 23 birds, on Day 22.
Feed intake, water intake, weight gain and mortality were used as outcome parameters.
Individual daily feed intake and individual daily water intake data by pen and then by treatment group were calculated for Phases 1 and 2 (and for the entire trial for the birds in Group/Pen 2, 15 and 16 that continue through both Phases) using figures for total feed and water provided each day to each pen divided by the number of birds in each pen. Where errors in weighing, feeding/watering or recording (or other unexplained losses of feed and water) had occurred means were adjusted by using the mean value for the same pen on the 1-2 days either side of the apparent error. Similarly, group mean bodyweights were calculated for Phase 1 using total weight/total no. birds for Day 0 and individual weights from Days 7, 14, 21, 28, 35 and 42. Total (individual) feed consumed was calculated per treatment and feed conversion ratios per treatment calculated using the expression: total (individual) feed/total (individual) weight gain.
Individual daily feed intake and individual daily water intake were statistically compared by treatment within each phase and between Pens 2 and 15/16 over both phases using a linear model:—
and Tibco SPOTFIRE S+ 8.2 (2010). ‘Day’ was included in the model to allow for changes over time, ‘Pen’ as each treatment consisted of 2 pens while an interaction term ‘Treatment:Day’ was included to allow for treatment×time effects. Model suitability was confirmed by inspection of residual plots; in all instances the statistical model was appropriate.

[5] = Phase 1, IVP 1 g/L in-water Day 0-21, pens 3, 4
[6] = Phase 1, IVP 1 g/L in-water Day 1-21, pens 5, 6
[7] = Phase 1, IVP 1 g/L in-water Day 2-21, pens 7, 8
[8] = Phase 1, IVP 1 g/L in-water Day 3-21, pens 9, 10
[9] = Phase 1, IVP 1 g/L in-water Day 4-21, pens 11, 12
[10] = Phase 1, IVP 1 g/L in-water Day 5-21, pens 13, 14
[11] = Phase 1, IVP 1 g/L in-water Day 6-21 (42), pens 15, 16
[12] = Phase 2 (day-old chicks received Day 22), pens 19, 20, Day 25-42FEED (IVP in-feed)
[13] = Phase 2 summary, pens 15, 16, D6-21(42), IVP 1 g/L in-water, birds kept to day 42

In the case of `COc1ccc2cc3[n+](cc2c1OC)CCc1cc2c(cc1-3)OCO2` [IRP001 chloride, berberine chloride], the “Cumulative Pathology and Enteritis scores” value [1] is reported as “equal or lower than the control”, the “gastrointestinal tract (GIT) histologic lesions” value [2] is reported as “within normal limits” and the liver histologic lesions [2] is reported as “within normal limits”. For the same compound, the “FCR 0-14 corrected for mortality” value [3] was 1.120 and 1.125 and 1.103, the “FCR 0-21 corrected for mortality” value [3] was 1.285 and 1.256 and 1.250 and the “FCR 0-28 corrected for mortality” value [3] was 1.470 and 1.467 and 1.486. For the same compound, the “Feed per bird over days 0-14” value [3] was 485^B g/bird and 513^A g/bird and 512^A g/bird, the “Feed per bird over days 0-21” value [3] was 1186^B g/bird and 1227^AB g/bird and 1240^AB g/bird and the “Feed per bird over days 0-28” value [3] was 1957 g/bird and 2037 g/bird and 2049 g/bird. For the same compound, the “Feed per bird over days 0-42” value [3] was 4121 g/bird and 4247 g/bird and 4305 g/bird, the “Mean Weight Gain over days 0-7” value [3] was 113 gm and 121 gm and 119 gm and the “Mean Weight Gain over days 8-14” value [3] was 320^C gm and 334^A gm and 343^A gm. For the same compound, the “Mean Weight Gain over days 15-21” value [3] was 491^B gm and 517^A gm and 528^A gm, the “Mean Weight Gain over days 22-28” value [3] was 593 gm and 618 gm and 600 gm and the “Mean Weight Gain over days 29-42” value [3] was 1324 gm and 1341 gm and 1436 gm. For the same compound, the “Mean live weight at 0 days” value [3] was 41 gm, the “Mean live weight at 7 days” value [3] was 154 gm and 163 gm and 160 gm and the “Mean live weight at 14 days” value [3] was 432^B gm and 456^A gm and 461^A gm. For the same compound, the “Mean live weight at 21 days” value [3] was 973^C gm and 972^AB gm and 989^A gm, the “Mean live weight at 28 days” value [3] was 1517^B gm and 1590^A gm and the “Mean live weight at 42 days” value [3] was 2840^B gm and 2932^A gm and 3026^A gm. For the same compound, the “appearance of bird health” value [3] was “always appeared healthy”, the droppings [3] was “moist yellow-ish droppings” and the early growth rate [3] was “significantly lower than all other groups”. The growth rate [3] was “statistically similar to the control group”, the “lesion scores in duodenum, jejunum and total gut” value [3] was “highest lesion scores” and the “reduction of coccidial lesions” value [3] was “not by the lower dose rates”. The “total intestinal health scores (Tierlynck et al.)” value [3] was “approached significance”, the “translucency score upper intestine and undigested feed particles in rectum” value [3] was “reduced translucency score in the upper intestine and the presence of undigested feed particles in the rectum” and the FCR [4, 5] was 1.49. For the same compound, the Gain [4, 5] was 0.610 kg, the “Group mean bodyweight Day 0” value [4, 5] was 43.2 and the “Group mean bodyweight Day 7” value [4, 5] was 118.1. The “Group mean bodyweight Day 14” value [4, 5] was 291.9, the “Group mean bodyweight Day 22” value [4, 5] was 653.6 and the “Total Feed” value [4, 5] was 0.908 kg. The FCR [4, 6] was 1.50, the Gain [4, 6] was 0.678 kg and the “Group mean bodyweight Day 0” value [4, 6] was 42.4. For the same compound, the “Group mean bodyweight Day 7” value [4, 6] was 125.8, the “Group mean bodyweight Day 14” value [4, 6] was 309.0 and the “Group mean bodyweight Day 22” value [4, 6] was 720.7. For the same compound, the “Total Feed” value [4, 6] was 1.019 kg, the FCR [4, 7] was 1.45 and the Gain [4, 7] was 0.675 kg. The “Group mean bodyweight Day 0” value [4, 7] was 44.6, the “Group mean bodyweight Day 7” value [4, 7] was 132.0 and the “Group mean bodyweight Day 14” value [4, 7] was 315.4. For the same compound, the “Group mean bodyweight Day 22” value [4, 7] was 719.4, the “Total Feed” value [4, 7] was 0.977 kg and the FCR [4, 8] was 1.44. The Gain [4, 8] was 0.653 kg, the “Group mean bodyweight Day 0” value [4, 8] was 42.4 and the “Group mean bodyweight Day 7” value [4, 8] was 118.6. The “Group mean bodyweight Day 14” value [4, 8] was 295.1, the “Group mean bodyweight Day 22” value [4, 8] was 695.7 and the “Total Feed” value [4, 8] was 0.939 kg. For the same compound, the FCR [4, 9] was 1.46, the Gain [4, 9] was 0.716 kg and the “Group mean bodyweight Day 0” value [4, 9] was 41.8. For the same compound, the “Group mean bodyweight Day 7” value [4, 9] was 138.8, the “Group mean bodyweight Day 14” value [4, 9] was 320.3 and the “Group mean bodyweight Day 22” value [4, 9] was 758.2. The “Total Feed” value [4, 9] was 1.046 kg, the FCR [4, 10] was 1.48 and the Gain [4, 10] was 0.680 kg. The “Group mean bodyweight Day 0” value [4, 10] was 44.3, the “Group mean bodyweight Day 7” value [4, 10] was 135.3 and the “Group mean bodyweight Day 14” value [4, 10] was 316.8. For the same compound, the “Group mean bodyweight Day 22” value [4, 10] was 724.7, the “Total Feed” value [4, 10] was 1.010 kg and the FCR [4, 11] was 1.40. The Gain [4, 11] was 0.723 kg, the “Group mean bodyweight Day 0” value [4, 11] was 43.8 and the “Group mean bodyweight Day 7” value [4, 11] was 139.1. The “Group mean bodyweight Day 14” value [4, 11] was 325.2, the “Group mean bodyweight Day 22” value [4, 11] was 767.2 and the “Total Feed” value [4, 11] was 1.016 kg. The “Bodyweight Day 28” value [4, 12] was 112.4 g, the “Bodyweight Day 35” value [4, 12] was 273.6 g and the “Bodyweight Day 42” value [4, 12] was 614.9 g. The FCR [4, 12] was 1.56, the Feed [4, 12] was 0.783 kg and the Gain [4, 12] was 0.502 kg. The “Bodyweight Day 28” value [4, 13] was 1.16 kg, the “Bodyweight Day 35” value [4, 13] was 1.66 kg and the “Bodyweight Day 42” value [4, 13] was 2.39 kg. It also gave an FCR [4, 13] of 1.64, a Feed [4, 13] of 3.841 kg and a Gain [4, 13] of 2.346 kg.
